Data reported in BindingDB's records for doi:10.1021/jm00089a010 (Abbott Laboratories, 1992).
pIC50: −log10 of the molar value. Where a SMILES comes first, the peptide text is derived from it. The star is where a group is joined. Propanoyl(3-(4-F-phenyl)) = O=C(CCc1ccc(F)cc1)*; Propanoyl(3-(4-Cl-Ph)) = O=C(CCc1ccc(Cl)cc1)*; X6 = O=C(/C=C\c1ccc([N+](=O)[O-])cc1)*; X15 = O=C(/C=C\c1ccc(C(F)(F)F)cc1)*; X22 = O=C(CCc1cccc(OS(=O)(=O)O)c1)*; X30 = O=C(CCc1ccc(C(F)(F)F)cc1)*; X7 = CN(C)c1ccc(/C=C\C(=O)*)cc1; X21 = O=C(/C=C\c1ccc(Br)cc1)*; X11 = O=C(/C=C\c1ccc(O)cc1)*; X5 = O=C(CCc1cccc(O)c1)*; Boc = CC(C)(C)OC(=O)*

Each molecule was assayed against Gastrin/cholecystokinin type B receptor (Cavia porcellus) (assay: Inhibition of specific binding of [125I]BH-CCK-8 in guinea pig cortex).
For CC(C)(C)OC(=O)N[C@@H](Cc1c[nH]c2ccccc12)C(=O)N[C@@H](CCCCNC(=O)CCc1cccc(O)c1)C(=O)N[C@@H](CC(=O)O)C(=O)N[C@@H](Cc1ccccc1)C(N)=O [3-{2-[2-tert-Butoxycarbonylamino-3-(1H-indol-3-yl)-propionylamino]-6-[3-(3-hydroxy-phenyl)-propionylamino]-hexanoylamino}-N-(1-carbamoyl-2-phenyl-ethyl)-succinamic acid; hydarte] (Boc-WK(X5)DF-NH2), the pIC50 was 5.52.
With CC(C)(C)OC(=O)N[C@@H](Cc1c[nH]c2ccccc12)C(=O)N[C@@H](CCCCNC(=O)CCc1cccc(OS(=O)(=O)O)c1)C(=O)N[C@@H](CC(=O)O)C(=O)N[C@@H](Cc1ccccc1)C(N)=O [3-{2-[2-tert-Butoxycarbonylamino-3-(1H-indol-3-yl)-propionylamino]-6-[3-(3-sulfooxy-phenyl)-propionylamino]-hexanoylamino}-N-(1-carbamoyl-2-phenyl-ethyl)-succinamic acid; NH40H.hydrate] (Boc-WK(X22)DF-NH2) the pIC50 was 5.00.
CC(C)(C)OC(=O)N[C@@H](Cc1c[nH]c2ccccc12)C(=O)N[C@@H](CCCCNC(=O)CCc1ccc(Cl)cc1)C(=O)N[C@@H](CC(=O)O)C(=O)N[C@@H](Cc1ccccc1)C(N)=O [3-{2-[2-tert-Butoxycarbonylamino-3-(1H-indol-3-yl)-propionylamino]-6-[3-(4-chloro-phenyl)-propionylamino]-hexanoylamino}-N-(1-carbamoyl-2-phenyl-ethyl)-succinamic acid; hydrate] (Boc-WK(Propanoyl(3-(4-Cl-Ph)))DF-NH2) was tested, and the pIC50 was 5.15.
For CN(C)c1ccc(/C=C\C(=O)NCCCC[C@H](NC(=O)[C@H](Cc2c[nH]c3ccccc23)NC(=O)OC(C)(C)C)C(=O)N[C@@H](CC(=O)O)C(=O)N[C@@H](Cc2ccccc2)C(N)=O)cc1 [3-{2-[2-tert-Butoxycarbonylamino-3-(1H-indol-3-yl)-propionylamino]-6-[3-(4-dimethylamino-phenyl)-acryloylamino]-hexanoylamino}-N-(1-carbamoyl-2-phenyl-ethyl)-succinamic acid; hydrate] (Boc-WK(X7)DF-NH2), the pIC50 was 5.68.
CC(C)(C)OC(=O)N[C@@H](Cc1c[nH]c2ccccc12)C(=O)N[C@@H](CCCCNC(=O)CCc1ccc(F)cc1)C(=O)N[C@@H](CC(=O)O)C(=O)N[C@@H](Cc1ccccc1)C(N)=O [3-{2-[2-tert-Butoxycarbonylamino-3-(1H-indol-3-yl)-propionylamino]-6-[3-(4-fluoro-phenyl)-propionylamino]-hexanoylamino}-N-(1-carbamoyl-2-phenyl-ethyl)-succinamic acid; hydrate] (Boc-WK(Propanoyl(3-(4-F-phenyl)))DF-NH2) was tested, and the pIC50 was 5.00.
Molecule CC(C)(C)OC(=O)N[C@@H](Cc1c[nH]c2ccccc12)C(=O)N[C@@H](CCCCNC(=O)/C=C\c1ccc(O)cc1)C(=O)N[C@@H](CC(=O)O)C(=O)N[C@@H](Cc1ccccc1)C(N)=O [3-{2-[2-tert-Butoxycarbonylamino-3-(1H-indol-3-yl)-propionylamino]-6-[3-(4-hydroxy-phenyl)-acryloylamino]-hexanoylamino}-N-(1-carbamoyl-2-phenyl-ethyl)-succinamic acid] (Boc-WK(X11)DF-NH2) has a pIC50 of 6.14.
CC(C)(C)OC(=O)N[C@@H](Cc1c[nH]c2ccccc12)C(=O)N[C@@H](CCCCNC(=O)/C=C\c1ccc([N+](=O)[O-])cc1)C(=O)N[C@@H](CC(=O)O)C(=O)N[C@@H](Cc1ccccc1)C(N)=O [3-{2-[2-tert-Butoxycarbonylamino-3-(1H-indol-3-yl)-propionylamino]-6-[3-(4-nitro-phenyl)-acryloylamino]-hexanoylamino}-N-(1-carbamoyl-2-phenyl-ethyl)-succinamic acid; hydrate] (Boc-WK(X6)DF-NH2) gave a pIC50 of 5.36.
CC(C)(C)OC(=O)N[C@@H](Cc1c[nH]c2ccccc12)C(=O)N[C@@H](CCCCNC(=O)/C=C\c1ccc(C(F)(F)F)cc1)C(=O)N[C@@H](CC(=O)O)C(=O)N[C@@H](Cc1ccccc1)C(N)=O [3-{2-[2-tert-Butoxycarbonylamino-3-(1H-indol-3-yl)-propionylamino]-6-[3-(4-trifluoromethyl-phenyl)-acryloylamino]-hexanoylamino}-N-(1-carbamoyl-2-phenyl-ethyl)-succinamic acid; hydrate] (Boc-WK(X15)DF-NH2) was tested, and the pIC50 was 5.28.
CC(C)(C)OC(=O)N[C@@H](Cc1c[nH]c2ccccc12)C(=O)N[C@@H](CCCCNC(=O)CCc1ccc(C(F)(F)F)cc1)C(=O)N[C@@H](CC(=O)O)C(=O)N[C@@H](Cc1ccccc1)C(N)=O [3-{2-[2-tert-Butoxycarbonylamino-3-(1H-indol-3-yl)-propionylamino]-6-[3-(4-trifluoromethyl-phenyl)-propionylamino]-hexanoylamino}-N-(1-carbamoyl-2-phenyl-ethyl)-succinamic acid; hydrate] (Boc-WK(X30)DF-NH2) gave a pIC50 of 4.72.
CC(C)(C)OC(=O)N[C@@H](Cc1c[nH]c2ccccc12)C(=O)N[C@@H](CCCCNC(=O)/C=C\c1ccc(Br)cc1)C(=O)N[C@@H](CC(=O)O)C(=O)N[C@@H](Cc1ccccc1)C(N)=O [3-{6-[3-(4-Bromo-phenyl)-acryloylamino]-2-[2-tert-butoxycarbonylamino-3-(1H-indol-3-yl)-propionylamino]-hexanoylamino}-N-(1-carbamoyl-2-phenyl-ethyl)-succinamic acid; hydrate.NH4OH] (Boc-WK(X21)DF-NH2) showed a pIC50 of 5.29.
